Here are results for 14 molecules from ChEMBL document CHEMBL1201862, “PubChem BioAssay data set” (2004).

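Where inhibition never reached the appropriate level, the endpoint shown equals the highest concentration tested. Otherwise, values were interpolated linearly from a five-concentration, 48-hour dose response in 96-well plates. GI50: concentration for 50% inhibition of growth.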 Activity calls are given as the source filed them. Rule as the data show it: active = GI50 up to about 1.1 µM and inactive = higher. A value given as a limit tells only on which side of the number the result lay.

Test in all cases: DTP human tumour cell line panel, 48 h
Assay [1] relates to SK-MEL-2.
For assay [2], the system named is TK-10.
Assay [3] has as its system A498.
Assay [4] concerns HCT-15.
Assay [5] concerns RPMI-8226.
Assay [6] deals with SNB-19.
Assay [7] concerns SW-620.
Assay [8] has as its system EKVX.
Assay [9] relates to HCT-116.
Assay [10] relates to SNB-75.
Assay [11] deals with NCI-H226.
The subject of assay [12] is OVCAR-3.
Assay [13] has as its system SR.
In assay [14] the test system is COLO 205.
Assay [15] has as its system NCI-H460.
The subject of assay [16] is Hs-578T.
Assay [17] concerns DU-145.
For assay [18], the system named is MCF7.
For assay [19], the system named is MDA-MB-231.

For the molecule `Cc1ccc(NC(=O)C(=O)C(C#N)c2ccccc2C)cc1C` (stereo not drawn), the GI50 in assay [1] is > 100 µM (inactive); in assay [2] it was > 100 µM (inactive); in assay [3], > 100 µM (inactive); in [4], above 42.4 µM; in [5] it was > 57.8 µM (inactive); in [6], > 100 µM (inactive). For the same molecule, the GI50 in assay [7] was > 41.8 µM (inactive); in assay [8], > 100 µM (inactive); in assay [9], > 44.5 µM (inactive); in [10], > 69.3 µM (inactive); in assay [11], > 100 µM (inactive); in [12], > 100 µM (inactive). The GI50 in assay [13] was > 100 µM (inactive); in assay [14], > 45.5 µM (inactive); in assay [15] it was > 48.5 µM (inactive).
`O=C1C[C@H](c2ccc(O)c(O)c2)Oc2cc(O)cc(O)c21`: the GI50 was > 100 µM (inactive) in [1]; 73.1 µM (inactive) in [2]; > 100 µM (inactive) in [3]; above 100 µM in assay [4]; > 100 µM (inactive) in assay [5]; > 100 µM (inactive) in [6]. Besides, the GI50 in [7] was > 100 µM (inactive); in assay [8], 83.8 µM (inactive); in [9], > 100 µM (inactive); in [10], 83.9 µM (inactive); in assay [11] it was > 100 µM (inactive); in assay [12], > 100 µM (inactive). The GI50 in assay [13] was 27 µM (inactive); in assay [14], > 100 µM (inactive); in assay [15] it was 72.4 µM (inactive).
Consider `CC(=O)OC1COC(N2C(=O)C(=O)c3ccccc32)C(OC(C)=O)C1OC(C)=O` (stereo not drawn), for which the GI50 is > 100 µM (inactive) in assay [1]; > 100 µM (inactive) in [2]; > 100 µM (inactive) in [3]; above 100 µM in assay [4]; > 100 µM (inactive) in [5]; > 100 µM (inactive) in assay [6]. Besides, the GI50 in [7], in assay [8], in assay [10], in [11], in [12] and in assay [13] was > 100 µM (inactive) throughout. Moreover, the GI50 in [14] and in [15] was > 100 µM (inactive) throughout.
For `CN(C)c1nc(N(C)C)sc(=O)n1`, the GI50 was > 100 µM (inactive) in assay [1]; > 100 µM (inactive) in assay [2]; > 100 µM (inactive) in assay [3]; above 100 µM in [4]; > 100 µM (inactive) in [5]; > 100 µM (inactive) in assay [6]. Besides, the GI50 in [7], in assay [8], in assay [10], in assay [11], in [13] and in [15] was > 100 µM (inactive) throughout.
`CC(=O)C1=C(C)NC2C=CC=CN12` (stereo not drawn): the GI50 in assay [1] is > 100 µM (inactive); in assay [2], > 100 µM (inactive); in assay [3], > 100 µM (inactive); in assay [4], above 100 µM; in [5], > 100 µM (inactive); in assay [6], > 100 µM (inactive). Besides, the GI50 in assay [7], in [8], in assay [9], in [10], in assay [11] and in assay [12] was > 100 µM (inactive) throughout. For the same molecule, the GI50 in [13], in [14] and in [15] was > 100 µM (inactive) in each case.
Turning to `O=C1c2ccccc2C(=O)N1C/C=N/NS(=O)(=O)c1ccc2ccccc2c1`, the GI50 is > 100 µM (inactive) in assay [1]; > 100 µM (inactive) in assay [2]; > 100 µM (inactive) in [3]; above 100 µM in assay [4]; > 100 µM (inactive) in assay [5]; > 100 µM (inactive) in [6]. Besides, the GI50 in [7], in [8], in assay [9], in [10], in [11] and in assay [12] was > 100 µM (inactive) in each case. The GI50 in [13], in assay [14] and in assay [15] was > 100 µM (inactive) throughout.
On to `N#CC(/C(CCCC(=O)Nc1cccc([N+](=O)[O-])c1)=N/NC(=O)c1cc2ccccc2cc1O)c1ccccc1` (stereo not drawn), for which the GI50 in assay [2] is 31.1 µM (inactive); in [3], 35.3 µM (inactive); in assay [4], 17.9 µM; in assay [5] it was 35.4 µM (inactive); in [6] it was 28.8 µM (inactive); in [7] it was 34.6 µM (inactive). The GI50 in assay [8] is 23.2 µM (inactive); in assay [9], 35.6 µM (inactive); in assay [10], > 100 µM (inactive); in assay [11] it was > 100 µM (inactive); in assay [12], 25.8 µM (inactive); in assay [13], 26.8 µM (inactive). For the same molecule, the GI50 in [14] is 23.6 µM (inactive); in assay [15], 21.2 µM (inactive).
As to `CC(=O)Oc1ccc(O)c2c1CCCC2`, the GI50 was > 100 µM (inactive) in [1]; 21.4 µM (inactive) in [2]; > 31.6 µM (inactive) in assay [3]; 13.4 µM in [4]; 23.3 µM (inactive) in [5]; > 100 µM (inactive) in assay [6]. In addition, the GI50 in [7] is 20.8 µM (inactive); in [8], 64.9 µM (inactive); in assay [9], 18.4 µM (inactive); in assay [10], > 100 µM (inactive); in [11], > 100 µM (inactive); in assay [12], 12.5 µM (inactive). Also, the GI50 was 2.82 µM (inactive) in assay [13], 22.4 µM (inactive) in assay [14] and > 31.6 µM (inactive) in [15].
With `COc1cc2c(cc1OC)C(C(CBr)CBr)N(C1CCCC1)CC2` (stereo not drawn), the GI50 in assay [1] is > 100 µM (inactive); in assay [2], > 100 µM (inactive); in assay [3], > 100 µM (inactive); in assay [4] it was above 100 µM; in [5], > 100 µM (inactive); in assay [6], > 100 µM (inactive). Further, the GI50 in [7] was > 100 µM (inactive); in [8], > 100 µM (inactive); in [10], > 100 µM (inactive); in [11] it was 82.6 µM (inactive); in assay [12], > 100 µM (inactive); in [13], > 100 µM (inactive). Also, the GI50 in assay [14] and in assay [15] was > 100 µM (inactive) throughout.
As to `Nc1nc(Cl)cc(OCC2(CO)CC=CC2)n1`, the GI50 is > 100 µM (inactive) in assay [2]; 90.6 µM (inactive) in assay [3]; above 100 µM in assay [4]; > 100 µM (inactive) in assay [5]; > 100 µM (inactive) in assay [6]; > 100 µM (inactive) in [7]. The GI50 in [8] was > 100 µM (inactive); in assay [9], > 100 µM (inactive); in [16], > 100 µM (inactive); in [10], 27.1 µM (inactive); in [17] it was > 100 µM (inactive); in [11] it was > 100 µM (inactive). In addition, the GI50 in assay [18], in [12], in assay [13] and in [15] was > 100 µM (inactive) each time.
In the case of `C[N+](C)(C)CC1CCCCC1O` (stereo not drawn), the GI50 in assay [1] was > 100 µM (inactive); in [2] it was > 100 µM (inactive); in assay [3], > 100 µM (inactive); in assay [4], above 100 µM; in assay [5], > 100 µM (inactive); in assay [7] it was > 100 µM (inactive). In addition, the GI50 in [9], in assay [10], in assay [11], in assay [12], in assay [13] and in assay [14] was > 100 µM (inactive) each time. Moreover, the GI50 in assay [15] was > 100 µM (inactive).
With `COc1cc(C2c3cc4c(cc3[C@@H](Nc3ccc(F)cc3)C3CO[C@@H](O)[C@H]23)OCO4)cc(OC)c1O` (stereo partly drawn), the GI50 in [2] was 12.3 µM (inactive); in assay [4], 3.89 µM; in [5], 2.26 µM (inactive); in assay [6], 3.64 µM (inactive); in assay [7], 8.38 µM (inactive); in assay [8], 14.4 µM (inactive). Besides, the GI50 in assay [9] is 3.72 µM (inactive); in assay [16], 0.697 µM (active); in [10], 4.83 µM (inactive); in [19], 3.48 µM (inactive); in assay [18], 1.9 µM (inactive); in assay [14] it was 5.78 µM (inactive). Also, the GI50 in assay [15] was 0.169 µM (active).
For `COC1=CC(C2c3cc4c(cc3[C@@H](Nc3ccc([N+](=O)[O-])cc3)C3COC(=O)[C@H]23)OCO4)=CC(=O)C1=O` (stereo partly drawn), the GI50 is 17 µM (inactive) in [1]; 8.41 µM (inactive) in assay [2]; 1.84 µM (inactive) in assay [3]; 3.27 µM in assay [4]; 2.43 µM (inactive) in [5]; 3.07 µM (inactive) in [6]. Also, the GI50 was 5.31 µM (inactive) in [7]; 7.57 µM (inactive) in assay [8]; 6.64 µM (inactive) in [9]; 1.54 µM (inactive) in assay [10]; 1.64 µM (inactive) in assay [11]; 14.2 µM (inactive) in [12]. In addition, the figures for the GI50 in [13], in assay [14] and in assay [15] were 0.179 µM (active), 21.4 µM (inactive) and 0.277 µM (active), respectively.
As to `CC(=O)Nc1ccc(-c2nc3ccccc3s2)cc1O`, the GI50 in assay [1] was 49.1 µM (inactive); in [2] it was 32.4 µM (inactive); in assay [3], 69.7 µM (inactive); in assay [4], 41.2 µM; in [5] it was 21 µM (inactive); in assay [6], > 100 µM (inactive). In addition, the GI50 in [7] was 84.5 µM (inactive); in assay [9], 56.1 µM (inactive); in assay [16] it was 50.1 µM (inactive); in assay [10], 24.8 µM (inactive); in [19] it was 78.2 µM (inactive); in assay [17] it was 34.8 µM (inactive). In addition, the GI50 in assay [11] is 16.9 µM (inactive); in [12], 94.8 µM (inactive); in [13], 61.9 µM (inactive); in [14], 33.8 µM (inactive); in [15] it was 28.6 µM (inactive).

As a reminder, the GI50 is the concentration that inhibits growth by half.
